Molecules are shown by their SMILES. Values after ≈ are worked out from the molar mass of the structure shown. Active and inactive are the calls of the source.

The source of these data is ChEMBL document CHEMBL2440061, “Synthesis and pharmacological evaluation of carboxycoumarins as a new antitumor treatment targeting lactate transport in cancer cells” (Bioorg Med Chem, 2013).

For data set [1], the system named is SiHa. The data set is described as follows: Cytotoxicity against human SiHa cells in lactate-containing medium after 72 hrs by MTT assay. The format is functional, cell-based. Background: Tetrazolium assays rely on reduction of a dye to a coloured formazan, in cell work by metabolically active cells.
The target in data set [2] is T1, Monocarboxylate transporter 4 (Homo sapiens, UniProt O15427).
T1 sequence (O15427 whole entry): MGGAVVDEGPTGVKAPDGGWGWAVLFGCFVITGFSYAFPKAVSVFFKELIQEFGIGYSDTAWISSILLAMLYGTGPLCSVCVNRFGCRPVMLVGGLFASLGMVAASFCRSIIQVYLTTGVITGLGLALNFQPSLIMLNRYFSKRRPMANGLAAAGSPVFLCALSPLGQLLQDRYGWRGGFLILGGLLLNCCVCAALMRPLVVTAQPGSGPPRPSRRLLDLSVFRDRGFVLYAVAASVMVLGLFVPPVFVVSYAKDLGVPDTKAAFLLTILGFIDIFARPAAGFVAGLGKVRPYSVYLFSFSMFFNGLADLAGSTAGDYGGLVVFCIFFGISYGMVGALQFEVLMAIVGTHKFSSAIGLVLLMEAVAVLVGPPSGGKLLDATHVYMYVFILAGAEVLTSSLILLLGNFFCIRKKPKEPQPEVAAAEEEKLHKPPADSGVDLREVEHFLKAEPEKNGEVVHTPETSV
The data set is described as follows: Inhibition of MCT4-mediated [14C]-lactate uptake in human SiHa cells in lactate-containing medium assessed as remaining lactate concentration in culture medium after 24 hrs by liquid scintillation counting. The format is cell-based.

The subject of data set [3] is SiHa. As to the kind of experiment: Cytotoxicity against human SiHa cells in glucose-containing medium after 72 hrs by MTT assay. The format is functional, cell-based.
Data set [4] deals with Mus musculus. As to the kind of experiment: Toxicity in C57Bl6/J mouse assessed as induction of hemorrhage at 1.5 mg/kg, ip. The format is organism-based. The arrangement: dose 1.5 mg/kg, route intraperitoneal. To be noted: in vivo.
In data set [5] the test system is Mus musculus. As to the kind of experiment: Toxicity in C57Bl6/J mouse assessed as mortality at 1.5 mg/kg, ip. The format is organism-based. The arrangement: dose 1.5 mg/kg, route intraperitoneal. To be noted: in vivo.
The target of data set [6] is T1, Monocarboxylate transporter 4. To be noted: siha.
Description: Inhibition of MCT4-mediated [14C]-lactate uptake in human SiHa cells in lactate-containing medium assessed as remaining lactate concentration in culture medium after 12 mins by liquid scintillation counting
The target of data set [7] is T2, Monocarboxylate transporter 4 (Homo sapiens) (UniProt O15427).
T2 sequence (whole entry): T1 sequence (O15427 whole entry)
The data set is described as follows: Ratio of alpha-cyano-4-hydroxycinnamate IC50 to compound IC50 for MCT4-mediated [14C]-lactate uptake in human SiHa cells in lactate-containing medium assessed as remaining lactate concentration in culture medium after 24 hrs by liquid scintillation counting. The format is cell-based.

Data set [8] relates to Mus musculus. As to the kind of experiment: Toxicity in C57Bl6/J mouse assessed as induction of anticoagulant at 3 mg/kg, ip by prothrombin time test. The format is organism-based. The arrangement: dose 3 mg/kg, route intraperitoneal. To be noted: in vivo.
Data set [9] can be described thus: AUC (infinity) in mouse at 3 mg/kg, ip. The format is ADME, organism-based. The arrangement: time infinity, dose 3 mg/kg, route intraperitoneal. To be noted: plasma.
Data set [10] deals with Mus musculus. The data set is described as follows: Toxicity in C57Bl6/J mouse assessed as mortality at 3 mg/kg, ip. The format is organism-based. Also noted: dose 3 mg/kg, route intraperitoneal. Particulars: in vivo.
A short description of data set [11]: Tmax in mouse at 3 mg/kg, ip. The format is ADME, organism-based. Also noted: dose 3 mg/kg, route intraperitoneal. Particulars: in vivo.
Data set [12] can be described thus: Cmax in mouse at 3 mg/kg, ip. Also noted: dose 3 mg/kg, route intraperitoneal. The format is ADME, organism-based. To be noted: in vivo.
The nature of data set [13]: Half life in mouse at 3 mg/kg, ip. The format is ADME, organism-based. Also noted: dose 3 mg/kg, route intraperitoneal. Particulars: in vivo.
Data set [14] is described as follows: Metabolic stability in human plasma assessed as compound remaining after 1 hr. The format is ADME, cell-free. To be noted: read-out: Stability.
A short description of data set [15]: Half life in human liver microsomes. The format is ADME, Microsome.
A short description of data set [16]: Half life in human hepatocytes. The format is ADME, cell-based, Hepatocyte.
Data set [17] can be described thus: Metabolic stability in mouse plasma assessed as compound remaining after 1 hr. The format is ADME, cell-free. To be noted: read-out: Stability.
Data set [18] is described as follows: Chemical stability of the compound in simulated intestinal fluid assessed as compound remaining after 4 hrs. The format is physicochemical. To be noted: read-out: Stability.
Data set [19] can be described thus: Half life in mouse liver microsomes. The format is ADME, Microsome. (Liver microsomes are a subcellular fraction often used to study metabolism.)
A short description of data set [20]: Aqueous solubility of the compound in PBS buffer at pH 7.4. The format is physicochemical.
Data set [21] in a line: Chemical stability of the compound in simulated gastric fluid assessed as compound remaining after 1 hr. The format is physicochemical. To be noted: read-out: Stability.
The subject of data set [22] is SiHa. The data set is described as follows: Induction of apoptosis in human SiHa cells in lactate-containing medium assessed as caspase-3 cleavage at 10 uM after 48 hrs by Western blot analysis. The format is functional, cell-based.
Data set [23] has as its system SiHa. The data set is described as follows: Cytotoxicity against human SiHa cells in glucose-containing medium at 10 uM under hypoxia condition after 72 hrs by MTT assay. The format is functional, cell-based.
The test system of data set [24] is SiHa. As to the kind of experiment: Cytotoxicity against human SiHa cells in glucose-containing medium at 10 uM under normoxia condition after 72 hrs by MTT assay. The format is functional, cell-based.
Data set [25] has as its system SiHa. As to the kind of experiment: Cytotoxicity against human SiHa cells in glucose-containing medium after 72 hrs by MTT assay presence of pyruvate. The format is functional, cell-based.
The test system of data set [26] is SiHa. As to the kind of experiment: Cytotoxicity against human SiHa cells in glucose-containing medium after 72 hrs by MTT assay absence of pyruvate. The format is functional, cell-based.

Turning to `O=C(O)c1cc2ccc(OCc3cc(C(F)(F)F)cc(C(F)(F)F)c3)cc2oc1=O`, in the data set on SiHa [1], the result was inactive.
In general, IC50 refers to the midpoint of a concentration-inhibition curve. What is called EC50 is the concentration that produces a half-maximal response. On to `O=C(O)c1cc2ccc(OCc3ccccc3)cc2n(Cc2ccccc2)c1=O`, for which the IC50 in data set [2] was greater than 30 µM. Moreover, the EC50 with SiHa [1] is greater than 30 µM. Moreover, in the data set with SiHa [3], the result was inactive.
In the case of `CCn1c(=O)c(C(=O)O)cc2ccc(OCc3ccccc3)cc21`, the IC50 in data set [2] was greater than 30 µM. Moreover, the EC50 in the data set with SiHa [1] was greater than 30 µM. Further, the outcome with SiHa [3] was inactive.
On to `CN(C)c1ccc2cc(C(=O)O)c(=O)oc2c1`, for which the IC50 in [2] amounted to 1.4 µM. Also, the EC50 with SiHa [1] came out at 2.9 µM. Besides, the result with SiHa [3] was inactive.
`CC(=O)CC(c1ccccc1)c1c(O)c2ccccc2oc1=O` (stereo unspecified) [WARFARIN]: the Activity result with Mus musculus [4] and with Mus musculus [5] was “Toxic” in each case.
`Cc1c(C(=O)O)c(=O)oc2cc(O)ccc12`: the 50% inhibitory concentration (IC50) in data set [2] was greater than 30 µM. The EC50 in the data set on SiHa [1] is greater than 30 µM. The result with SiHa [3] was inactive.
Regarding `O=C(O)c1cc2ccc(OCc3ccccc3)cc2[nH]c1=O`, the IC50 in [2] is greater than 30 µM. In the data set with SiHa [1], this molecule returned an EC50 greater than 30 µM. Besides, in the data set on SiHa [3], the outcome was inactive.
Turning to `N#C/C(=C\c1ccc(O)cc1)C(=O)O` [alpha-CYANO-4-HYDROXYCINNAMIC ACID], the IC50 is 43.5 µM in [2] and 10.7 µM in data set [6]. In the data set with SiHa [1], this molecule registered an EC50 of 10.7 µM. The outcome in the data set on SiHa [3] was inactive.
As to `COc1ccc2c(C)c(C(=O)O)c(=O)oc2c1`, the IC50 in data set [2] was greater than 30 µM. The same molecule registered an EC50 in the data set with SiHa [1] greater than 30 µM. In addition, in the data set on SiHa [3], the outcome was inactive.
For `O=C(O)c1cc2ccc(N3CCOCC3)cc2oc1=O`, the IC50 in [2] stood at 7.9 µM. In the data set on SiHa [1], the 50% effective concentration (EC50) stood at 17.5 µM. For the same molecule, the result in the data set with SiHa [3] was inactive.
The corresponding values for `O=C(O)c1cc2ccc(OCc3ccccc3)cc2oc1=O` are 1.9 µM, 9.1 µM and “inactive”.
In the case of `COc1ccc2cc(C(=O)O)c(=O)oc2c1`, the IC50 in data set [2] is 2.3 µM. Moreover, the EC50 with SiHa [1] came to 9.8 µM. Moreover, in the data set on SiHa [3], the outcome was inactive.
As for `CC(C)=CCC/C(C)=C/COc1ccc2cc(C(=O)O)c(=O)oc2c1`, in the data set on SiHa [1], the result was inactive.
Take `O=C(O)c1cc2ccc(N3CCCC3)cc2oc1=O`: the IC50 in [2] is greater than 30 µM. This molecule gave an EC50 in the data set with SiHa [1] of 14.3 µM. The outcome with SiHa [3] was inactive.
As to `O=C(O)c1cc2ccc(OCCc3ccccc3)cc2oc1=O`, the IC50 in data set [2] amounted to 2.4 µM. Further, the EC50 in the data set with SiHa [1] came out at 5.6 µM. The outcome with SiHa [3] was inactive.
For the molecule `O=C(O)c1cc2ccc(OCc3cccc(F)c3)cc2oc1=O`, the result with SiHa [1] was inactive.
For the molecule `O=C(O)c1cc2ccc(OCc3ccc(F)cc3)cc2oc1=O`, the IC50 in [2] worked out at 1.25 µM. In the data set on SiHa [1], this molecule registered an EC50 of 3.9 µM. Moreover, the outcome in the data set on SiHa [3] was inactive.
As for `O=C(O)c1cc2ccc(OC3Cc4ccccc4C3)cc2oc1=O`, in the data set with SiHa [1], the outcome was inactive.
On the same count and under the same terms, next, `O=C(O)c1cc2ccc(OCn3nnc4ccccc43)cc2oc1=O`: “inactive”.
Take `O=C(O)c1cc2cc3c4c(c2oc1=O)CCCN4CCC3`: the Ratio IC50 in data set [7] is 50. Moreover, in data set [2], the half-inhibitory concentration (IC50) worked out at 0.73 µM. In the data set with SiHa [1], this molecule showed an EC50 of 1.2 µM. In the data set on SiHa [3], the outcome was inactive.
Consider `Cn1c(=O)c(C(=O)O)cc2ccc(OCc3ccccc3)cc21`, for which, in data set [2], the IC50 is greater than 30 µM. Besides, the EC50 in the data set on SiHa [1] is greater than 30 µM. The result in the data set on SiHa [3] was inactive.
For the molecule `Cc1c(C(=O)O)c(=O)oc2cc(OCc3ccccc3)ccc12`, the IC50 in data set [2] is greater than 30 µM. The half-maximal effective concentration (EC50) in the data set with SiHa [1] is greater than 30 µM. For the same molecule, the result with SiHa [3] was inactive.
Broadly, the AUC(0-inf) is the area under the concentration-time curve extrapolated to infinity. Higher therefore signals high exposure. The Tmax is the time at which the peak concentration occurs. A word on the Cmax: it is the highest concentration seen after dosing. As a reminder, the half-life is the time needed for the level to fall by half in the phase considered. Read a high half-life as slow decline. What is called solubility is the concentration that dissolves in the medium under given conditions. Regarding `CN(Cc1ccccc1)c1ccc2cc(C(=O)O)c(=O)oc2c1`, the Ratio IC50 in data set [7] came to 3. Further, the Activity result in the data set on Mus musculus [8] and with Mus musculus [10] was “Non-toxic” each time. This molecule also had an area under the curve AUC(0-inf) in [9] of 935 ng·h/mL. In addition, in data set [11], the Tmax was 0.167 h. This molecule came in with a Cmax in data set [12] of 1250 ng/mL. Besides, the half-life in data set [13] was 4.5 h; in data set [15] it was greater than 1 h; in [16] it was greater than 2 h; in data set [19], greater than 1 h. In addition, the remaining at 1 h in data set [14] is 44%; in [17] it was 103%; in data set [21], 105%. Moreover, the remaining at 4 h in data set [18] was 91%. Further, the concentration in solution in [20] (solubility) was 58 µM (≈ 17.9 µg/mL). Besides, the IC50 in data set [2] is 0.059 µM; in [6], 0.01 µM. For the same molecule, the outcome in the data set with SiHa [22] was Active. Also, the outcome in the data set with SiHa [23], in the data set with SiHa [24], in the data set with SiHa [25], in the data set on SiHa [26] and in the data set on SiHa [3] was inactive. The EC50 with SiHa [1] is 0.22 µM.
